Series [1] in a line: Cmax in mouse at 5 mg/kg, po. In kind it is ADME, organism-based. Also on record: dose 5 mg/kg, route oral. The following applies: in vivo.
Series [2] in a line: Cmax in rat at 2 mg/kg, po. It is filed as ADME, organism-based. Also on record: dose 2 mg/kg, route oral. The following applies: in vivo.
The nature of series [3]: Cmax in cynomolgus monkey at 2 mg/kg, po. It is filed as ADME, organism-based, Macaca fascicularis. Details: dose 2 mg/kg, route oral. The following applies: in vivo.
The nature of series [4]: Cmax in dog at 2 mg/kg, po. The following applies: in vivo. In kind it is ADME, organism-based, Canis lupus familiaris. Details: dose 2 mg/kg, route oral.
Series [5] is described as follows: Tmax in mouse at 5 mg/kg, po or 1 mg/kg, iv. It is filed as ADME, organism-based. The following applies: in vivo.
A short description of series [6]: Tmax in rat at 2 mg/kg, po or 0.5 mg/kg, iv. The following applies: in vivo. It is filed as ADME, organism-based.
Series [7] is described as follows: Tmax in cynomolgus monkey at 2 mg/kg, po or 0.5 mg/kg, iv. It is filed as ADME, organism-based, Macaca fascicularis. The following applies: in vivo.
Series [8] is described as follows: Tmax in dog at 2 mg/kg, po or 0.5 mg/kg, iv. In kind it is ADME, organism-based, Canis lupus familiaris. The following applies: in vivo.
Series [9] is described as follows: Clearance in mouse at 5 mg/kg, po or 1 mg/kg, iv. The following applies: in vivo. It is filed as ADME, organism-based.
Series [10] is described as follows: Clearance in rat at 2 mg/kg, po or 0.5 mg/kg, iv. It is filed as ADME, organism-based. The following applies: in vivo.
Series [11] can be described thus: Clearance in cynomolgus monkey at 2 mg/kg, po or 0.5 mg/kg, iv. The following applies: in vivo. It is filed as ADME, organism-based, Macaca fascicularis.
Series [12] is described as follows: Clearance in dog at 2 mg/kg, po or 0.5 mg/kg, iv. It is filed as ADME, organism-based, Canis lupus familiaris. The following applies: in vivo.
Series [13] in a line: Volume of distribution at steady state in mouse at 5 mg/kg, po or 1 mg/kg, iv. It is filed as ADME, organism-based. The following applies: in vivo, read-out: Vdss.
A short description of series [14]: Volume of distribution at steady state in rat at 2 mg/kg, po or 0.5 mg/kg, iv. The following applies: in vivo, read-out: Vdss. In kind it is ADME, organism-based.
Series [15] in a line: Volume of distribution at steady state in cynomolgus monkey at 2 mg/kg, po or 0.5 mg/kg, iv. The following applies: in vivo, read-out: Vdss. It is filed as ADME, organism-based, Macaca fascicularis.
Series [16] is described as follows: Volume of distribution at steady state in dog at 2 mg/kg, po or 0.5 mg/kg, iv. In kind it is ADME, organism-based, Canis lupus familiaris. The following applies: in vivo, read-out: Vdss.
Series [17] is described as follows: Half life in mouse at 1 mg/kg, iv. In kind it is ADME, organism-based. The following applies: in vivo.
The nature of series [18]: Half life in rat at 0.5 mg/kg, iv. In kind it is ADME, organism-based. The following applies: in vivo.
Series [19] can be described thus: Half life in cynomolgus monkey at 0.5 mg/kg, iv. It is filed as ADME, organism-based, Macaca fascicularis. The following applies: in vivo.
The nature of series [20]: Half life in dog at 0.5 mg/kg, iv. In kind it is ADME, organism-based, Canis lupus familiaris. The following applies: in vivo.
Series [21] is described as follows: Oral bioavailability in cynomolgus monkey at 2 mg/kg. It is filed as ADME, organism-based, Macaca fascicularis. The following applies: in vivo.
Series [22] in a line: Oral bioavailability in dog at 2 mg/kg. In kind it is ADME, organism-based, Canis lupus familiaris. The following applies: in vivo.
Series [23] can be described thus: Terminal plasma concentration in ob/ob mouse at 3 mg/kg, po administered 30 mins prior to testing by oral glucose tolerance test. The following applies: read-out: Cp(T). It is filed as ADME, organism-based.
Series [24] can be described thus: Terminal plasma concentration in ob/ob mouse at 10 mg/kg, po administered 30 mins prior to testing by oral glucose tolerance test. In kind it is ADME, organism-based. The following applies: read-out: Cp(T).
Series [25] is described as follows: Terminal plasma concentration in ob/ob mouse at 30 mg/kg, po administered 30 mins prior to testing by oral glucose tolerance test. It is filed as ADME, organism-based. The following applies: read-out: Cp(T).
Series [26] is described as follows: in vivo. The following applies: mouse, po, 5 mg/kg.
The nature of series [27]: physchem. The following applies: SIF, pH 6.8.

≈ marks a conversion by molar mass, not a printed value. Bounds are passed on as bounds.

Take `CNC(=O)Nc1cc(Oc2cncc(C)c2)c(-c2ccc(OCC(C)(C)O)nc2)cn1`: the Cmax in [1] is 350 nM; in series [2], 490 nM; in series [3], 1150 nM; in series [4] it was 3520 nM. For the same compound, the Tmax in series [5] turned out to be 0.33 h; in series [6], 0.83 h; in [7], 1.67 h; in series [8] it was 1.33 h. The clearance in series [9] is 6.17 mL/min/kg; in [10] it was 27.3 mL/min/kg; in series [11], 10 mL/min/kg; in [12] it was 4.17 mL/min/kg. In addition, the Vd in series [13] stood at 0.59 L/kg; in series [14], 2.18 L/kg; in series [15], 2.29 L/kg; in series [16], 1.49 L/kg. For the same compound, the half-life in series [17] is 2 h; in series [18], 1.4 h; in series [19] it was 6.7 h; in series [20] it was 6.5 h. The bioavailability in series [21] was determined as 70%; in [22], 99%; in series [26], 25%. Moreover, the values for the concentration at 0.5 h in [23], in series [24] and in series [25] were 1200 nM, 3600 nM and 38000 nM, respectively. Besides, the solubility in series [27] was found to be 46 µM (≈ 19.5 µg/mL).
For the compound `CNC(=O)Nc1cc(Oc2cncc(C)c2)c(-c2ccc(OC[C@H](C)O)nc2)cn1`, in series [27], the concentration in solution (solubility) came to 176 µM (≈ 72.1 µg/mL).
In [26], `CNC(=O)Nc1cc(Oc2cncc(C)c2)c(-c2ccc(OCCO)nc2)cn1` gave a bioavailability of 6%. In addition, the solubility in [27] is below 1 µM.
On to `CNC(=O)Nc1cc(Oc2cncc(C)c2)c(-c2ccc(OC[C@@H](C)O)nc2)cn1`, for which the concentration in solution in series [27] (solubility) came to 226 µM (≈ 92.5 µg/mL).

Usually Cmax stands for the peak of the concentration-time curve. By Tmax is commonly meant the time at which the peak concentration occurs. Usually half-life stands for the time in which the quantity being followed falls by half. As a reminder, the bioavailability is dose-corrected exposure relative to a reference, in per cent. As usually defined, the solubility is the dissolved amount per volume that the medium holds.
